Test results published in patent US20120277409A1, “METAL-POLYSACCHARIDE CONJUGATES: COMPOSITIONS, SYNTHESIS AND METHODS FOR CANCER THERAPY” (priority 2007, published 2012).
Entries after “also recorded” stand apart in the source; their conditions may differ. Where two headings read alike, the source gives them in different places.

Legend:
[1] = test system: PARP / caspase-3 cleavage in 2008-c13 cells; experiment: Western blot of cleaved PARP and cleaved caspase-3; type: cell-based, human; conditions: 48 hours; for cleaved PARP expression: 2008-c13 cells; for cleaved caspase-3 expression: 2008.C13 cells
Procedure: The effect of the platinum-polysaccharide conjugate of Example 1 on tumor cells was analyzed by treating 2008-c13 […] cells with the conjugate, then analyzing the effects on cellular proteins through a Western blot (FIG. 11).
To determine whether apoptosis is induced through a caspase-3-dependent pathway followed by the cleavage of PARP, levels of cleaved caspase-3 and PARP, which form after caspase-3 activation, were determined by Western blot analysis.

[2] = test system: p21 and cyclin A in 2008.C13 cells; experiment: p21 and cyclin A expression (Northern/Western blot); type: cell-based, human; conditions: 48 hours of drug exposure
Procedure: To elucidate the mechanism underlying S-phase arrest caused by CDDP and PC in 2008.C13 cells, the expression of p21 and cyclin A, which are important for cell-cycle regulation in the S phase, was examined in 2008.C13 cells after 48 hours of drug exposure.

[3] = test system: platinum-resistant ovarian cancer cell line 2008-c13; experiment: TUNEL assay of apoptosis; type: cell-based, human; conditions: 48 hours, compared at each dose, P<0.05
Description: DNA fragmentation typical of apoptosis was further determined by the TUNEL assay in three independent experiments.

[4] = test system: platinum-resistant ovarian cancer cell line 2008-c13; experiment: Flow cytometry (propidium iodide) of apoptosis / sub-G1 fraction; type: cell-based, human; conditions: for sub-G1 fraction (hypodiploid cells): 48 hours and 72 hours of drug exposure, same doses
Procedure: To determine the effectiveness of platinum-polysaccharide conjugate (PC) against platinum-resistant ovarian cancer cells, 2008-c13 cells ([…]) were treated with platinum-polysaccharide conjugate (PC). The cells were trypsinized and centrifuged at 2500 rpm for 5 min. After being washed with 1×PBS two times, cells were fixed with 70% ethanol overnight, washed twice with 1×PBS, and resuspended in 1 mL of propidium iodide (PI) solution (1×10^6 cells/mL). RNase (20 μg/mL) solution was added followed by 1 mL of propydium iodide solution (PI, 50 μg/mL in PBS). Samples were incubated at 37° C. for 15 min, and PI fluorescence was analyzed using a EPIS XL analyzer.
This effect was tested by flow cytometry in the 2008.C13 cell line after 48 hours and 72 hours of drug exposure.

2008.C13 cells = experiment: Flow cytometric cell-cycle analysis (S-phase arrest); type: cell-based, human; conditions: 48 hours
[5] = In vitro determination of relaxivity (T1, 7.0 T); type: physicochemical; conditions: in water, Gd 0.01-0.08 mM
Procedure: Solutions of Gd-EDTA-chitosan and Gd-DTPA were prepared in water at Gd concentrations of 0.01 mM, 0.02 mM, 0.04 mM and 0.08 mM. Spin lattice (T1) relaxivity was measured at 7.0 T. R1 in mM^−1s^−1 was obtained from linear last-squares determination of the slopes of 1/T1 vs [Gd] plot. R1 was calculated as 3.61 and […] for Gd-DTPA and Gd-EDTA-chitosan, respectively.

[6] = test system: platinum-resistant ovarian cancer cells (2008-c13)
Procedure: All cells were cultured at 37° C. in a humidified atmosphere containing 5% CO2 in RPMI 1640 medium supplemented with 10% fetal bovine serum and glutamine (2 mM). 2008 or 2008.C13 cells were seeded into 96-well plates (4,000 cells/well) and maintained in RPMI 1640 medium for 24 hours. […] Controls were treated with DMSO or PBS. After cells were treated, their growth and viability were determined by incubating the cells for 1 to 2 hours at 37° C. with 20 μL of tetrazolium substrate. Absorbence was measured at 450 nm using a 96-well Synergy HT-microplate reader (Biotek, Winooski, Vt.) The rate of cell growth inhibition was expressed as a percentage as follows: […]. The experiments were repeated separately three times. Methylene tetrazolium (MTT) dye assay determined the amount of viable cells. Cellular protein content was determined by Lowry assay. The drug concentration that inhibits 50% of cell growth (IC-50) was then determined Data are expressed as the percentage differences compared with controls (OD of cells after treatment/OD of cells without treatment).

[7] = test system: breast cancer cells (13762NF) tumor; experiment: Anticancer effect in breast tumor-bearing rat model; type: in vivo; conditions: for tumor volume: single dose (Pt 10 mg/kg or chondroitin only)
Procedure: Female Fischer 344 rats (125-175 g) were inoculated with breast cancer cells (13762NF, 10^6 cells/rat, s.c. in the hind leg). After 15-20 days and a tumor volume of […], the breast tumor-bearing rats were administered either the platinum-chondroitin (Platinum-polysaccharide) conjugate (PC) or chondroitin alone at doses of 10 mg Pt/kg (platinum (IV)-polysaccharide) or 45 mg/kg (chondroitin). Tumor volumes and body weight were recorded daily for sixty days. Tumor volumes were measured as [length (l)×width (w)×thickness (h)]/2. Loss of body weight of 15% is considered a chemical-induced toxic effect. […] After treatment with platinum-polysaccharide conjugate, tumor tissues were dissected and embedded in […]. The tumor tissue was fixed in paraffin, and stained with hematoxylin and eosin for histological examinations.

Compound	cleaved PARP expression [1]	cleaved caspase-3 expression [1]	cyclin A expression [2]	p21 expression [2]	apoptotic cells by TUNEL [3]	sub-G1 fraction (hypodiploid cells) [4]	R1 (spin lattice T1 relaxivity) [5] [mM⁻¹ s⁻¹]	tumor volume ([7]; 24 hours) [cm^3]	tumor volume ([7]; 94 hrs) [cm^3]	further results
N.N.[Cl][Pt][Cl] [CDDP, cis-diamminedichloroplatinum (II), reference compound]	increased from 2.5 μg/mL to 20 μg/mL	expressed in a pattern similar to that of PARP	Neither p21 nor cyclin A expression was related to the extent of S-phase arrest	Neither p21 nor cyclin A expression was related to the extent of S-phase arrest	dose-dependent increase	dose-dependent increase	–	–	–	maximal S-phase arrest (2008.C13 cells; 20 μg/mL): 84.8%
O=C([O-])CN(CCN(CC(=O)[O-])CC(=O)O)CCN(CC(=O)[O-])CC(=O)O.[Gd+3] [Gd-DTPA, reference compound]	–	–	–	–	–	–	3.61	–	–	–
Cis-1,2-DACH-dichloro-Pt (IV)-aspartate-chondroitin [PC]	significantly increased; also recorded: cleaved PARP expression induced by high-dose (20 μg/mL) PC appeared to be lower than that induced by low-dose PC	comparable to that in the CDDP-treated group, except for the lower expression seen at 5 μg/mL	up-regulated after high-dose PC treatment and was maintained at a low level after low-dose PC treatment	up-regulated with maximal S-phase arrest after low-dose PC treatment, but not after high doses; also recorded: increased p21 expression	many more cells experiencing apoptosis; also recorded: much higher levels of apoptosis	more pronounced increase in the sub-G1 fraction; also recorded: substantially more sub-G1 cells than did CDDP	–	5.2661	0.8782	apoptotic effect by flow cytometry ([4]; 2.5 and 5 μg/mL, compared to cisplatin): significantly enhanced the apoptotic effect; enhancement of tumor killing compared with cisplatin ([6]; 2.5 μg/mL, 48 hours): 5.9 times; enhancement of tumor killing compared with cisplatin ([6]; 2.5 μg/mL, 72 hours): 9.3 times; enhancement of tumor killing compared with cisplatin ([6]; 5 μg/mL, 48 hours): 4.6 times; enhancement of tumor killing compared with cisplatin ([6]; 5 μg/mL, 72 hours): 1.5 times; cell growth inhibition (in words) ([6]; low doses): significantly inhibit cell growth; effect against breast tumor growth (in words) ([7]; 10 mg Pt/kg): effective in vivo against breast tumor growth; tumor necrosis (H & E histology) ([7]; 94 hrs post-administration): Extensive necrosis; S-phase arrest (2008.C13 cells; 2.5 μg/mL): 90.3%; S-phase arrest (2008.C13 cells; 5 μg/mL): 90.1%
Gd-EDTA-chitosan	–	–	–	–	–	–	9.59	–	–	–
chondroitin [reference compound]	–	–	–	–	–	–	–	5.2591	14.3622	–
